Experiments:
[1] = system: IL-8; test: IL-8 quantification in EpiDerm-conditioned media (ELISA); format: cell-based, human
Protocol: The test material was assayed in duplicates. Controls were assayed in triplicates. The negative control was type I sterile water and Finsolv. The positive control was 5% SDS. All incubations were at 37° C. The pre-incubation time 1 (tissue acclimatization time) was overnight and the exposure to samples was 60 min. Tissues were then rinsed with sterile PBS and placed in the new culture medium. Post-incubation time 1 was 24 h, afterward medium was collected and saved at −20° C. for later interleukin quantification, and tissues were placed in new medium. Post-incubation time 2 was 18 h (both post-incubation times are to allow the consequences of the potential irritation to fully develop), MTT test (irritation readout) was 3 h and the extraction was left overnight. The extracted formazan (the product of the MTT conversion, proportional to cell viability) was quantified with Molecular Devices microplate reader MAX190 by colorimetry. Signal quantification was performed using SoftMax3.1.2PRO at 560 nm. For IL-8 quantification (a complementary method for assessing skin irritation), 100 μl samples of media from each well were tested in triplicates using CytoSet antibody pair for ELISA from Thermo Fischer Scientific (Waltham, Mass.; cat. #133301) according to the manufacturer's instructions. […]

[2] = system: EpiDerm skin substitutes; test: Skin irritation in reconstructed human epidermal model EpiDerm (MTT viability); format: cell-based; set-up: key to Classification: I = irritant; NI = non irritant
Protocol: Materials and Methods: Thirty p of each sample was applied on top of EpiDerm skin substitutes.
EpiDerm skin substitutes (cat. EPI-200-SIT; Lot #29690) and 5% SDS solution (positive control) were obtained from MatTek (Ashland, Mass.). The test was generally performed according to MatTek protocol. The study was conducted in line with requirements of OECD GD 34 and ECVAM Performance Standard document for applying human skin models to in vitro skin irritation. This protocol utilizes the MTT-based cytotoxicity readout as the experimental endpoint, and thus effectively measures the cytotoxicity of test materials at the level of the skin. MTT [3-(4,5-Dimethylthiazol-2-yl)-2,5-diphenyltetrazolium bromide, a tetrazole] which is yellow, is reduced to purple formazan in living cells and this conversion is measured in a colorimetric assay. MTT assay measures the activity of succinate dehydrogenase, a key enzyme in the respiratory electron transport chain in mitochondria and is a generally-accepted test for measuring cytotoxicity.
Statistically significant variation was defined as ≥15% variation from the water control with p value<0.05 calculated using double-tailed t-test.

[3] = target: T1, PPAR-α (Homo sapiens, UniProt Q07869); test: PPAR-α luciferase reporter assay in CHO cells
T1 sequence (Q07869 1-468): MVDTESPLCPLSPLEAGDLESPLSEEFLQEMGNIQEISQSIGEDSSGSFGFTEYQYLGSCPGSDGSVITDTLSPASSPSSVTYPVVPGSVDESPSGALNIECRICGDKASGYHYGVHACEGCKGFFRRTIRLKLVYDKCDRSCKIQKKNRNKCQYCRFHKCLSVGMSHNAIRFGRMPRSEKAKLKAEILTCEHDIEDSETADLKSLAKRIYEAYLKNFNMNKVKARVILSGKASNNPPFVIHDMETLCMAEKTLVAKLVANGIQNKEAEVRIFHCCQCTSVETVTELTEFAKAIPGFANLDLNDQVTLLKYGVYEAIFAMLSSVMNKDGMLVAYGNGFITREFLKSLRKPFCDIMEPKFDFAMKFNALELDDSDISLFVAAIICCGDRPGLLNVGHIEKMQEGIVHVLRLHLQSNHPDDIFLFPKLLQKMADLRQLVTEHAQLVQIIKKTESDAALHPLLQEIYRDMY
Protocol: The objective of this project was to determine the effects of the test materials listed in Table 4 on the transcription regulatory activity of PPARα in a luciferase reporter assay system.
A variety of samples were tested on the effect on the transcription of the PPAR-α controlled luciferase reporter gene.
PPAR-α Luciferase experiment: Compositions were tested at 250 μg/mL Dilution in DMSO (FIG. 1) and 500 μg/mL Dilution in DMSO (FIG. 2).
Table 5 summarizes the effect of different concentrations of test materials on the transcriptional activation of the luciferase reporter gene under the PPAR-α-controlled promoter (2 separate experiments, Experiment 1 wherein sample prep was done in water and Experiment 2 wherein the sample prep was done in DMSO).

[4] = system: CHO cells; test: Cytotoxicity observed in the PPAR-α luciferase reporter assay; conditions: for Cytotoxic?: Experiment 2 (sample prep in DMSO)
Protocol: A variety of samples were tested on the effect on the transcription of the PPAR-α controlled luciferase reporter gene. CHO cells were utilized and are an epithelial cell line derived from the ovary of the Chinese hamster.

[5] = system: C57BL/6 mouse melanocytes; test: Melanin content in melanocytes and melanocyte-conditioned medium; format: cell-based; conditions: 3 days; for % Control (extracellular melanin): melanocyte-conditioned medium
Protocol: Materials & Methods: Test material was dissolved at 100 mg/ml in DMSO the day of the experiment, diluted in sterile distilled water and samples were added in duplicates to confluent cultures of C57BL/6 mouse melanocytes well plate format. The cell growth medium was Opti-MEM supplemented with 7% horse serum (ThermoFisher Scientific, Waltham, Mass.) and antibiotics. Medium was freshly changed on Day 0 of the experiment. Cells were grown in the presence of the test material for 3 days, afterward they were frozen at −20° C., lysed in Solvable (Perkin Elmer, Waltham, Mass.) at 37° C. for 60 min. and colorimetrically quantified at 490 nm with Molecular Devices (Sunnyvale, Calif.) microplate reader MAX190. Kojic acid (100 μg/ml and 200 μg/ml) was the positive control. Statistically significant variation was defined as >20% variation from the water control with p value<0.05 calculated with double-tailed t-test.
Test materials were added to exponentially-growing cultures and the experiment was terminated 3 days later.

[6] = Lipophilic oxygen radical absorbance capacity (Lipo-ORAC) assay; format: biochemical; conditions: expressed in Trolox equivalents
Protocol: Because of its damaging effect on vital biological systems, oxidative stress has been implicated in more than 100 diseases and aging. The objective of this test was to measure the antioxidant potential of the test materials listed in Table I using lipophilic oxygen radical absorbance capacity (Lipo-ORAC) assay (Stock solutions were prepared in acetone at 2% and diluted in 7% RMCD immediately before the experiment). Lipo-ORAC assay measures the ability of antioxidant compounds to inhibit the decline in disodium fluorescein (FL) fluorescence that is induced by peroxyl radical generator, 2′,2′-Azobis (2-amidinopropane) dihydrochloride (AAPH). The peroxyl radical is one of the most common reactive oxygen species (ROS) found in the body. This procedure incorporates random methylated beta-cyclodextrin as a solubility enhancer and allows for quantification of antioxidant potential of lipophilic samples, using Trolox as standard. Applied Biosystems Cytofluor 4000 fluorometer and software were used for the quantification of this assay.

[7] = target: T2, PPAR-γ (Homo sapiens, UniProt P37231); test: PPAR-γ luciferase experiment; format: cell-based; conditions: statement of the description
T2 sequence (P37231 1-505): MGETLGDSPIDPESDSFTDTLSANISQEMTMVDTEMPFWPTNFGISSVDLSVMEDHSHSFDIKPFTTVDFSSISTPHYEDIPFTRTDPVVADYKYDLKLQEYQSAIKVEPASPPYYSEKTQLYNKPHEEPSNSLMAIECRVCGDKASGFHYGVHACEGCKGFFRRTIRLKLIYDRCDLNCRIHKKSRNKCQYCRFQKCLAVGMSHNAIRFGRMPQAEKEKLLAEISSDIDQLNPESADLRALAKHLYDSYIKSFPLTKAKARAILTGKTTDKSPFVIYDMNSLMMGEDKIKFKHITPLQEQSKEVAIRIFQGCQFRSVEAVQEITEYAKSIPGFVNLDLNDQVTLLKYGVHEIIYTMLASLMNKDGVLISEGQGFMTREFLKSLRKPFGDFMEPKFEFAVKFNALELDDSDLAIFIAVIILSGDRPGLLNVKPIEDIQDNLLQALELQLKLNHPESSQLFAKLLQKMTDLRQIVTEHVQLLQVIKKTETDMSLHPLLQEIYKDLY
Protocol: PPAR-γ Luciferase experiment: Compositions were tested at 50 μg/mL Dilution in DMSO (FIG. 3) and 200 μg/mL Dilution in DMSO (FIG. 4). Positive control: Rosiglitazone at 300 nM potent and selective agonist of PPARγ.

[8] = Experiment 2 (sample prep in DMSO), 250 μg/mL
[9] = Experiment 2 (sample prep in DMSO), 500 μg/mL
[10] = Experiment 1 (sample prep in water), 300 nM
[11] = Experiment 2 (sample prep in DMSO), 300 nM

Compound: CCCCCCCCCCCCOS(=O)(=O)[O-].[Na+] [5% SDS]
- decrease of the IL-8 level [1]: 55%
- cells viable ([2]; MTT): 12%
- Mean of OD ([2]; MTT formazan at 560 nm, 60 min exposure, RFV3 at 10% in Finsolv): 0.038
- Mean of Viability [% water] ([2]; MTT, 60 min exposure, RFV3 at 10% in Finsolv): 2 % water
- Classification ([2]; RFV3 at 10% in Finsolv): I

Compound: CCCCCCCCC(O)CCCCCCCCC(=O)O (centres unmarked) [10HSA, Hydroxystearic Acid]
- % Control (H2O) [3, 8]: 45%
- Chemoluminescence [3, 8]: 2 arbitrary units
- % Control (H2O) [3, 9]: 41%
- Chemoluminescence [3, 9]: 2 arbitrary units
- Cytotoxic? ([4]; 250 μg/mL): Yes
- Cytotoxic? ([4]; 500 μg/mL): Yes

Compound: Cc1nc(-c2ccc(C(F)(F)F)cc2)sc1C(=O)NCc1ccc(OC(C)(C)C(=O)O)cc1 [GW590735]
- % Control (H2O) [3, 10]: 365%
- Chemoluminescence [3, 10]: 344 arbitrary units
- % Control (H2O) [3, 11]: 341%
- Chemoluminescence [3, 11]: 19 arbitrary units
- effect on transcriptional activation of the luciferase reporter gene under the PPAR-α-controlled promoter (in words) ([3]; summary of Table 5): strongly upregulated

Compound: O=c1cc(CO)occ1O [Kojic acid]
- % Control (intracellular melanin) ([5]; 100 μg/ml): 92%
- % Control (extracellular melanin) ([5]; 100 μg/ml): 90%
- % Control (intracellular melanin) ([5]; 200 μg/ml): 86%
- % Control (extracellular melanin) ([5]; 200 μg/ml): 84%

Compound: CCCCCCCCC(CCCCCC)C(=O)OC[C@H](OC(=O)C(CCCCCC)CCCCCCCC)[C@H]1OC(=O)C(OC(=O)C(CCCCCC)CCCCCCCC)=C1OC(=O)C(CCCCCC)CCCCCCCC (some centres unmarked) [Tetrahexyldecyl (THD) ascorbate]
- ORAC (Lipo-ORAC score) [6]: 0 μmoles TE/g
- ORAC (Lipo-ORAC score) ([6]; listed as THD ascorbate): no activity

Compound: Cc1c(C)c2c(c(C)c1O)CCC(C)(C(=O)O)O2 (centres unmarked) [Trolox]
- ORAC (Lipo-ORAC score) [6]: 3985 μmoles TE/g

Compound: CCCCCC/C=C/C#CCCCCCCCC(=O)O [XA, (E)-Octadec-11-en-9-ynoic acid]
- % Control (H2O) [3, 8]: 145%
- Chemoluminescence [3, 8]: 8 arbitrary units
- % Control (H2O) [3, 9]: 24%
- Chemoluminescence [3, 9]: 1 arbitrary units
- PPAR / PPARα agonist activity (in words) ([3]; statements of the description): very mild PPARα agonist
- PPARγ agonist activity (in words) [7]: moderate PPARγ agonist
- cytotoxicity (in words) ([4]; Example 8, FIG. 9, 500 μg/mL in DMSO): cytotoxic
- Cytotoxic? ([4]; 500 μg/mL): Yes

Compound: Octadecenedioic Acid [ODA]
- % Control (H2O) [3, 8]: 278%
- Chemoluminescence [3, 8]: 15 arbitrary units
- % Control (H2O) [3, 9]: 97%
- Chemoluminescence [3, 9]: 5 arbitrary units
